What all share (format): in vivo
For assay [1], the system named is Southern Armyworm (Spodoptera eridania), 2nd Instar Larvae. Put plainly: Action on southern armyworm (Spodoptera eridania), 2nd instar larvae, sprayed lima bean plants. As to conditions: 96 h, 2nd instar larvae on lima bean, 4 days after treatment, read-out: mortality in comparison with untreated controls. On the procedure:
The active compounds were formulated by a Tecan liquid handler in 100% cyclohexanone as a 10,000 ppm solution supplied in tubes. The 10,000 ppm solution was serially diluted in 100% cyclohexanone to make interim solutions. These served as stock solutions for which final dilutions were made by the Tecan in 50% acetone:50% water (v/v) into 10 or 20 ml glass vials. A nonionic surfactant (Kinetic®) was included in the solution at a volume of 0.01% (v/v). The vials were then inserted into an automated electrostatic sprayer equipped with an atomizing nozzle for application to plants/insects.
Lima bean plants (variety Sieva) were grown 2 plants to a pot and selected for treatment at the 1st true leaf stage. Test solutions were sprayed onto the foliage by an automated electrostatic plant sprayer equipped with an atomizing spray nozzle. The plants were dried in the sprayer fume hood and then removed from the sprayer. Each pot was placed into perforated plastic bags with a zip closure. About 10 to 11 armyworm larvae were placed into the bag and the bags zipped closed. Test plants were maintained in a growth room at about 250C and about 20-40% relative humidity for 4 days, avoiding direct exposure to fluorescent light (24 hour photoperiod) to prevent trapping of heat inside the bags. Mortality and reduced feeding were assessed 4 days after treatment, compared to untreated control plants.

Assay [2] relates to tobacco budworm (Heliothis virescens). Put plainly: Action on tobacco budworm (Heliothis virescens), 96-well microtiter plate diet test. The conditions noted are these: 120 h, egg and larval mortality after 5 days, read-out: mortality in comparison with untreated controls. On the procedure: For evaluating control of tobacco budworm (Helliothis virescens) the test unit consisted of 96-well-microtiter plates containing an insect diet and 15-25 H. virescens eggs.
The compounds were formulated using a solution containing 75% v/v water and 25% v/v DMSO. Different concentrations of formulated compounds were sprayed onto the insect diet at 10 μl, using a custom built micro atomizer, at two replications.
After application, microtiter plates were incubated at about 28±1° C. and about 80±5% relative humidity for 5 days. Egg and larval mortality was then visually assessed.

Assay [3] concerns Diamond Back Moth (Plutella xylostella). The assay can be described thus: Action on diamond back moth (Plutella xylostella), cabbage leaf dip. The conditions noted are these: foliar, 3rd instar larvae on dipped cabbage leaves, 72 hours after treatment, read-out: mortality in comparison with untreated controls. On the procedure:
The active compound is dissolved at the desired concentration in a mixture of 1:1 (vol:vol) distilled water:acetone. Surfactant (Kinetic® HV) is added at a rate of 0.01% (vol/vol).The test solution is prepared at the day of use.
Leaves of cabbage were dipped in test solution and air-dried. Treated leaves were placed in petri dishes lined with moist filter paper and inoculated with ten 3rd instar larvae. Mortality was recorded 72 hours after treatment. Feeding damages were also recorded using a scale of 0-100%.

Assay [4] has as its system boll weevil (Anthonomus grandis). The assay can be described thus: Action on boll weevil (Anthonomus grandis), 96-well microtiter plate diet test. As to conditions: 120 h, egg and larval mortality after 5 days, read-out: mortality in comparison with untreated controls. The procedure: For evaluating control of boll weevil (Anthonomus grandis) the test unit consisted of 96-well-microtiter plates containing an insect diet and 5-10 A. grandis eggs.
The compounds were formulated using a solution containing 75% v/v water and 25% v/v DMSO. Different concentrations of formulated compounds were sprayed onto the insect diet at 5 μl, using a custom built micro atomizer, at two replications.
After application, microtiter plates were incubated at about 25±1° C. and about 75±5% relative humidity for 5 days. Egg and larval mortality was then visually assessed.

Assay [5] deals with yellow fever mosquito (Aedes aegypti). The assay can be described thus: whole plant or invertebrate. As to conditions: 48 h, larval mortality visually assessed after 2 days, read-out: mortality in comparison with untreated controls. The procedure: For evaluating control of yellow fever mosquito (Aedes aegypti) the test unit consisted of 96-well-microtiter plates containing 200 μl of tap water per well and 5-15 freshly hatched A. aegypti larvae.
The active compounds were formulated using a solution containing 75% (v/v) water and 25% (v/v) DMSO. Different concentrations of formulated compounds or mixtures were sprayed onto the insect diet at 2.5 μl, using a custom built micro atomizer, at two replications.
After application, microtiter plates were incubated at 28±1° C., 80±5% RH for 2 days. Larval mortality was then visually assessed.

In assay [6] the test system is Orchid thrips (Dichromothrips corbetti). The assay can be described thus: Action on orchid thrips (Dichromothrips corbetti), floral-immersion technique. The conditions noted are these: adult thrips, mortality 72 hours after treatment, read-out: mortality in comparison with untreated controls. The procedure: Dichromothrips corbetti adults used for bioassay were obtained from a colony maintained continuously under laboratory conditions. For testing purposes, the test compound is diluted in a 1:1 mixture of acetone:water (vol:vol), plus Kinetic® HV at a rate of 0.01% v/v.
Thrips potency of each compound was evaluated by using a floral-immersion technique. All petals of individual, intact orchid flowers were dipped into treatment solution and allowed to dry in Petri dishes. Treated petals were placed into individual re-sealable plastic along with about 20 adult thrips. All test arenas were held under continuous light and a temperature of about 28° C. for duration of the assay. After 3 days, the numbers of live thrips were counted on each petal. The percent mortality was recorded 72 hours after treatment.

From US20200077658A1, “Pesticidal Compounds” (BASF SE, priority 2016, published 2020) come the findings set out here.

Where only a bound is given, the exact number is not on record here.

Regarding `CC(C)c1ccccc1N1C(=O)CS/C1=N\N=C\C(=O)Nc1cnc(N(C)c2ccc(OC(F)(F)F)cc2)nc1` [Compound C-11, (2E)-2-[(Z)-[3-(2-isopropylphenyl)-4-oxo-thiazolidin-2-ylidene]hydrazono]-N-[2-[N-methyl-4-(trifluoromethoxy)anilino]pyrimidin-5-yl]acetamide], in assay [1], the mortality (as a rule, the percentage killed) at 300 ppm is not below 75%. In assay [2], the mortality at 800 ppm was not below 75%. The mortality at 500 ppm in assay [3] was not below 75%.

For `CC(/C=N/NC(=S)Nc1ccccc1C(C)C)Oc1cnc(N(C)c2ccc(OC(F)(F)F)cc2)nc1` (stereo not shown) [Compound C-20, 1-(2-isopropylphenyl)-3-[(E)-2-[2-[N-methyl-4-(trifluoromethoxy)anilino]pyrimidin-5-yl]oxypropylideneamino]thiourea], the mortality at 500 ppm in assay [3] was not below 75%.

Take `CC(C)c1ccccc1N1C(=O)CS/C1=N\N=C\COc1ccc(N(C)c2ccc(OC(F)(F)F)cc2)nn1` [Compound C-29, (2Z)-3-(2-isopropylphenyl)-2-[(E)-2-[6-[N-methyl-4-(trifluoromethoxy)anilino]pyridazin-3-yl]oxyethylidenehydrazono]thiazolidin-4-one]: the mortality at 500 ppm in assay [3] is not below 75%.

In the case of `CC(C)c1ccccc1N1C(=O)CS/C1=N\N=C\C(=O)N(C)c1cnc(N(C)c2ccc(OC(F)(F)F)cc2)nc1` [Compound C-10, (2E)-2-[(Z)-[3-(2-isopropylphenyl)-4-oxo-thiazolidin-2-ylidene]hydrazono]-N-methyl-N-[2-[N-methyl-4-(trifluoromethoxy)anilino]pyrimidin-5-yl]acetamide], in assay [1], the mortality at 300 ppm is not below 75%. Besides, in assay [2], the mortality at 800 ppm was not below 75%. The mortality at 500 ppm in assay [3] is not below 75%.

With `CC(/C=N/NC(=S)Nc1c(C)cccc1C)=C\c1cnc(Nc2ccc(OC(F)(F)F)cc2)nc1` [Compound C-2, 1-(2,6-dimethylphenyl)-3-[(E)-[(E)-2-methyl-3-[2-[4-(trifluoromethoxy)anilino]pyrimidin-5-yl]prop-2-enylidene]amino]thiourea], the mortality at 300 ppm in assay [1] was not below 75%. The mortality at 800 ppm in assay [2], in assay [4] and in assay [5] was not below 75% in each case. The mortality at 500 ppm in assay [3] is not below 75%.

With `Cc1cc(N(C)c2ccc(OC(F)(F)F)cc2)nc(C)c1OC/C=N/NC(=S)Nc1ccccc1C(C)C` [Compound C-30, 1-[(E)-2-[[2,4-dimethyl-6-[N-methyl-4-(trifluoromethoxy)anilino]-3-pyridyl]oxy]ethylideneamino]-3-(2-isopropylphenyl)thiourea], the mortality at 800 ppm in assay [2] is not below 75%. In addition, in assay [3], the mortality at 500 ppm was not below 75%.

Turning to `CC(C)c1ccccc1N1C(=O)CS/C1=N\N=C\COc1cnc(N(C)c2ccc(OC(F)(F)F)cc2)nc1` [Compound C-19, (2Z)-3-(2-isopropylphenyl)-2-[(E)-2-[2-[N-methyl-4-(trifluoromethoxy)anilino]pyrimidin-5-yl]oxyethylidenehydrazono]thiazolidin-4-one], in assay [1], the mortality at 300 ppm was not below 75%. Moreover, in assay [3], the mortality at 500 ppm was not below 75%.

Regarding `CC(C)c1ccccc1N1CC(=O)N(/N=C/C=C/c2cnc(N(C)c3ccc(OC(F)(F)F)cc3)nc2)C1=O` [Compound C-14, 1-(2-isopropylphenyl)-3-[(E)-[(E)-3-[2-[N-methyl-4-(trifluoromethoxy)anilino]pyrimidin-5-yl]prop-2-enylidene]amino]imidazolidine-2,4-dione], the mortality at 800 ppm in assay [2] and in assay [4] was not below 75% in each case. Further, the mortality at 500 ppm in assay [3] and in assay [6] was not below 75% throughout.

On to `CC(C)c1ccccc1NC(=S)N/N=C/COc1cnc(N(C)c2ccc(OC(F)(F)F)cc2)nc1` [Compound C-18, 1-(2-isopropylphenyl)-3-[(E)-2-[2-[N-methyl-4-(trifluoromethoxy)anilino]pyrimidin-5-yl]oxyethylideneamino]thiourea], for which, in assay [1], the mortality at 300 ppm is not below 75%. For the same compound, in assay [3], the mortality at 500 ppm is not below 75%.

For the compound `CC(C=N/N=C1\SCC(=O)N1c1c(C)cccc1C)=Cc1cnc(Nc2ccc(OC(F)(F)F)cc2)nc1` [Compound C-4, (2Z)-3-(2,6-dimethylphenyl)-2-[(2-methyl-3-[2-[4-(trifluoromethoxy)anilino]pyrimidin-5-yl]prop-2-enylidene]hydrazono]thiazolidin-4-one], the mortality at 300 ppm in assay [1] was not below 75%. Besides, the mortality at 800 ppm in assay [2], in assay [4] and in assay [5] was not below 75% throughout. The mortality at 500 ppm in assay [3] was not below 75%.

On to `CC(/C=N/N=C1\SCC(=O)N1c1ccccc1C(C)C)Oc1ccc(N(C)c2ccc(OC(F)(F)F)cc2)nn1` (stereo not shown) [Compound C-28, (2Z)-3-(2-isopropylphenyl)-2-[(E)-2-[6-[N-methyl-4-(trifluoromethoxy)anilino]pyridazin-3-yl]oxypropylidenehydrazono]thiazolidin-4-one], for which, in assay [3], the mortality at 500 ppm is not below 75%.

Regarding `Cc1cc(N(C)c2ccc(OC(F)(F)F)cc2)nc(C)c1OC/C=N/N=C1\SCC(=O)N1c1ccccc1C(C)C` [Compound C-31, (2Z)-2-[(E)-2-[[2,4-dimethyl-6-[N-methyl-4-(trifluoromethoxy)anilino]-3-pyridyl]oxy]ethylidenehydrazono]-3-(2-isopropylphenyl)thiazolidin-4-one], the mortality at 300 ppm in assay [1] is not below 75%. Further, the mortality at 800 ppm in assay [2], in assay [4] and in assay [5] was not below 75% throughout. Moreover, the mortality at 500 ppm in assay [3] was not below 75%.

`CC(C)c1ccccc1NC(=S)N/N=C/C(=O)Nc1cnc(N(C)c2ccc(OC(F)(F)F)cc2)nc1` [Compound C-13, (2E)-2-[(2-isopropylphenyl)carbamothioylhydrazono]-N-[2-[N-methyl-4-(trifluoromethoxy)anilino]pyrimidin-5-yl]acetamide]: in assay [1], the mortality at 300 ppm is not below 75%. Moreover, the mortality at 800 ppm in assay [2] was not below 75%. Further, the mortality at 500 ppm in assay [3] is not below 75%.

Take `CC(/C=N/N=C1\SCC(=O)N1c1ccccc1C(C)C)Oc1cnc(N(C)c2ccc(OC(F)(F)F)cc2)nc1` (stereo not shown) [Compound C-21, (2Z)-3-(2-isopropylphenyl)-2-[(E)-2-[2-[N-methyl-4-(trifluoromethoxy)anilino]pyrimidin-5-yl]oxypropylidenehydrazono]thiazolidin-4-one]: in assay [3], the mortality at 500 ppm is not below 75%.

As to `Cc1nc(N(C)c2ccc(OC(F)(F)F)cc2)ncc1CC(C)/C=N/N=C1\SCC(=O)N1c1ccccc1C(C)C` (stereo not shown) [Compound C-24, (2Z)-3-(2-isopropylphenyl)-2-[(E)-[2-methyl-3-[4-methyl-2-[N-methyl-4-(trifluoromethoxy)anilino]pyrimidin-5-yl]propylidene]hydrazono]thiazolidin-4-one], in assay [2], the mortality at 800 ppm is not below 75%. In addition, the mortality at 500 ppm in assay [3] is not below 75%.
